US8058242B2, “Chimeric proteins with natriuretic activity” (The University of Queensland, priority 2004, dated 2011)

Assays:
conscious rabbits = assay: Blood pressure and heart rate in conscious rabbits, intravenous infusion dose-response (Example 8); parameters: Systolic BP, mean difference / Diastolic BP, mean difference / Mean BP, mean difference / HR, mean difference: dose or concentration left out as unconfirmed; conditions: for Diastolic BP, mean difference from control / HR, mean difference from control / Mean BP, mean difference from control / Systolic BP, mean difference from control: 45 min
[1] = tested on: endothelium-denuded aortic rings (GC-A mediated); assay: Aortic ring relaxation, endothelium-denuded rings pre-contracted with 40 mM KCl (Example 3); parameters: species or system rat; conditions: endothelium-denuded rat aortas pre-contracted with 40 mM KCl; peptide 0.1 μM
Method: (§1) Male Sprague Dawley rats were killed and the descending thoracic aorta rapidly removed and flushed with physiological solution. After being cleared of adhering fat and connective tissue, 5 mm rings were mounted under 10 g resting tension, between two stainless steel hooks, in organ baths (37° C.) containing carbogenated (95% O2 and 5% CO2) physiological salt solution of the following composition (mM): NaCl, 118.4; NaHCO3, 25; glucose, 11; KCl, 4.7; MgSO4, 1.2; KH2PO4, 1.2 and CaCl2, 2.5. The lower hook was attached to a tissue holder and the upper hook to a force displacement transducer (Grass FTO3). Where indicated endothelial cells were removed by gentle rubbing of the intimal surface with a wire. To confirm the presence or absence of endothelial cells, tissues were precontracted with a sub-maximal concentration of phenylephrine (0.3 μM) and the response to acetylcholine (ACh, 10 μM) observed. Ach-induced relaxation greater than 80% of maximum indicated the presence of endothelium; whereas Ach-induced relaxation less than 10% indicated the absence of endothelium. Ring preparations under resting tension were conditioned by two contraction/relaxation cycles with 40 mM KCl, contracted by a third application of 40 mM KCl and then relaxed with different doses of the venom peptides. Responses were expressed as a percentage relaxation of the precontraction by KCl.

[2] = tested on: endothelium-intact aortic rings (NPR-C mediated); assay: Aortic ring relaxation, endothelium-intact rings pre-contracted with 40 mM KCl (Example 3); parameters: species or system rat; conditions: endothelium-intact rat aortas pre-contracted with 40 mM KCl; peptide 0.1 μM
Method: as §1

Plasmin = biological target: T1, Plasmin (Homo sapiens, UniProt P00747); assay: Stability to enzymatic degradation by plasmin (Examples 7, 16); type: in vitro ADME; conditions: plasmin, 37° C.
T1 construct: with 500 ng Endopeptidase (NEP) or 10 μg Plasmin
Procedure, shortened: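 Peptide (100 μl of 500 μM) was incubated at 37 °C in 100 mM Tris/HCl, 150 mM NaCl, pH 7.2-7.4 with 500 ng NEP or 10 μg plasmin. Samples were taken from 5 min to 24 h and heat-quenched at 100 °C for 4 min. Remaining peptide was measured by RP-HPLC.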

[3] = biological target: T2, Natriuretic Peptide Receptor-A (NPR-A) signaling in MDCK cells (Canis lupus familiaris, UniProt A0A8I3MHU3); type: cell-based, canine; conditions: stimulation of cGMP accumulation in MDCK cells
T2 sequence (A0A8I3MHU3 32-1060): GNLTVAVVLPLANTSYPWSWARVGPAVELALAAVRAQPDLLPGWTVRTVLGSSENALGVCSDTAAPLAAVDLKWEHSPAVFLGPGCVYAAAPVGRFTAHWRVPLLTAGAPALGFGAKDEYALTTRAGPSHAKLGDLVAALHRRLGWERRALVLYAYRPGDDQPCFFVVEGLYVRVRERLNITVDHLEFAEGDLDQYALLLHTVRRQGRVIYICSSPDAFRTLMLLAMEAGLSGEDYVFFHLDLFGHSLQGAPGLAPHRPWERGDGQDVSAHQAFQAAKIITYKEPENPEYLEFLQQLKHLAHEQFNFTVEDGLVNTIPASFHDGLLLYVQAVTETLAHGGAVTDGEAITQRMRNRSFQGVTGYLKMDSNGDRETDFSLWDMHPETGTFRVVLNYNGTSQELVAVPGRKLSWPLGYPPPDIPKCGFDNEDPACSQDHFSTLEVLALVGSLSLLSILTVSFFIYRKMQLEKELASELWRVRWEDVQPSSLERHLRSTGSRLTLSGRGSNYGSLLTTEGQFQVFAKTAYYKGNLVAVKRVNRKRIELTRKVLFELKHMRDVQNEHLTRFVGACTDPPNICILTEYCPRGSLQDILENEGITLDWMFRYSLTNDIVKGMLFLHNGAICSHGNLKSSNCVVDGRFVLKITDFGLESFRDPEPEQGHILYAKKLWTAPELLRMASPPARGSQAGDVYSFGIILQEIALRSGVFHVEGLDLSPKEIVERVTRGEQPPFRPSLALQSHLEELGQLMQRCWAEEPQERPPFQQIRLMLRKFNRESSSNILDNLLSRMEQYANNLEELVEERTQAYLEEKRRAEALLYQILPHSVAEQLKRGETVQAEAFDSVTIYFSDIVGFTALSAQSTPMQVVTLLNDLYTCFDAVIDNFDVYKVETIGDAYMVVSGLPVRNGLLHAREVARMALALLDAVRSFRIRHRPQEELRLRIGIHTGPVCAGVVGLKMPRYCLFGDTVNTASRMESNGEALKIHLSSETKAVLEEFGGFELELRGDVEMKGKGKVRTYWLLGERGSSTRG

[4] = Table 9B, average of doses 1, 2, 4
[5] = average of the 3 doses 1.0, 2.0, 4.0 μg/kg/min

T1 sequence (P00747 97-580 partner limits assumed, species assumed): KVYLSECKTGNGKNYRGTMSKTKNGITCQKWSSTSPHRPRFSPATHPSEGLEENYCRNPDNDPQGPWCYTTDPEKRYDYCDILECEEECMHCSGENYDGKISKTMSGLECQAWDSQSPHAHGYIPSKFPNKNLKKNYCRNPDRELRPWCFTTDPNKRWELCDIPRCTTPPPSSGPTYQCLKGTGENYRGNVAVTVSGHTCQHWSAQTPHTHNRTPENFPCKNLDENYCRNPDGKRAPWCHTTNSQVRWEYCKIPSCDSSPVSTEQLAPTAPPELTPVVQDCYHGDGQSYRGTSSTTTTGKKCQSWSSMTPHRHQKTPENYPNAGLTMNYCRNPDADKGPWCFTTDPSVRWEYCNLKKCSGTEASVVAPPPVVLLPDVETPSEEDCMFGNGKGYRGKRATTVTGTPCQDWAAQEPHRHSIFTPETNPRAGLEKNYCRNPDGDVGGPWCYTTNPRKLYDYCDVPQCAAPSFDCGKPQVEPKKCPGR
T1 sequence (P00747 581-810 limits assumed, species assumed): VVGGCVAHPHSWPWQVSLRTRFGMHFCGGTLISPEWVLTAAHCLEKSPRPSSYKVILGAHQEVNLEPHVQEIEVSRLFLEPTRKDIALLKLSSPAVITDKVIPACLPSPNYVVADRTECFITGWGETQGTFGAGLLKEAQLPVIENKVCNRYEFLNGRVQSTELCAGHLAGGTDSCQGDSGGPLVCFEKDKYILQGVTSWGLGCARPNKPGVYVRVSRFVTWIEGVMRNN

## CC[C@H](C)[C@@H]1NC(=O)[C@H](CCCNC(=N)N)NC(=O)[C@H](CC(=O)O)NC(=O)[C@H](CCSC)NC(=O)[C@H](CCCNC(=N)N)NC(=O)CNC(=O)CNC(=O)[C@H](Cc2ccccc2)NC(=O)[C@@H](NC(=O)[C@H](CO)NC(=O)[C@H](CO)NC(=O)[C@H](CCCNC(=N)N)NC(=O)[C@H](CCCNC(=N)N)NC(=O)[C@H](CC(C)C)NC(=O)[C@@H](N)CO)CSSC[C@@H](C(=O)N[C@@H](CC(N)=O)C(=O)N[C@@H](CO)C(=O)N[C@@H](Cc2ccccc2)C(=O)N[C@@H](CCCNC(=N)N)C(=O)N[C@@H](Cc2ccc(O)cc2)C(=O)O)NC(=O)CNC(=O)[C@H](CC(C)C)NC(=O)CNC(=O)[C@H](CO)NC(=O)[C@H](CCC(N)=O)NC(=O)[C@H](C)NC(=O)CNC1=O [hANP, reference compound]
Conscious rabbits; Table 9B, Dose 1
  Diastolic BP, mean difference: −9.7 mmHg
  HR, mean difference: 17 bpm
  Mean BP, mean difference: −13.1 mmHg
  Systolic BP, mean difference: −10.6 mmHg
Conscious rabbits; Table 9B, Dose 2
  Diastolic BP, mean difference: −12.3 mmHg
  HR, mean difference: 19 bpm
  Mean BP, mean difference: −15.7 mmHg
  Systolic BP, mean difference: −13.0 mmHg
Conscious rabbits; Table 9B, Dose 4
  Diastolic BP, mean difference: −14.4 mmHg
  HR, mean difference: 9 bpm
  Mean BP, mean difference: −18.5 mmHg
  Systolic BP, mean difference: −14.5 mmHg
Conscious rabbits; [4]
  Diastolic BP, Average Response SED: −12.1 ± 0.8 mmHg
  HR, Average Response SED: 15 ± 3 bpm
  Systolic BP, Average Response SED: −12.7 ± 0.9 mmHg
Conscious rabbits; after 1 hour recovery period, Table 10A
  Recovery (MAP): 59.2 mm Hg
Conscious rabbits; after 1 hour recovery period, Table 10A, listed as WT-hANP
  Recovery Delta SED (MAP): 5.0±1.2 mm Hg
Conscious rabbits; [5]
  Diastolic BP, Average Response SED: −12.1 ± 0.8 mmHg
  HR, Average Response SED: 15.1 ± 3.2 bpm
  Systolic BP, Average Response SED: −12.7 ± 0.9 mmHg
Conscious rabbits; highest dose, Table 10A
  MAP at final dose: 54.2 mm Hg
Conscious rabbits; highest dose, Table 10A, groups 1, 2A and 3
  Treatment Effect, change of mean blood pressure during the infusion: −18.5 mm Hg
Conscious rabbits; i.v. infusion 1.0 μg/kg/min
  Diastolic BP, mean difference from control: −9.7 mmHg
  HR, mean difference from control: 17.1 bpm
  Mean BP, mean difference from control: −13.1 mmHg
  Systolic BP, mean difference from control: −10.6 mmHg
Conscious rabbits; i.v. infusion 2.0 μg/kg/min
  Diastolic BP, mean difference from control: −12.3 mmHg
  HR, mean difference from control: 19.0 bpm
  Mean BP, mean difference from control: −15.7 mmHg
  Systolic BP, mean difference from control: −13.0 mmHg
Conscious rabbits; i.v. infusion 4.0 μg/kg/min
  Diastolic BP, mean difference from control: −14.4 mmHg
  HR, mean difference from control: 9.0 bpm
  Mean BP, mean difference from control: −18.5 mmHg
  Systolic BP, mean difference from control: −14.5 mmHg
[1]
  percentage relaxation of the precontraction by KCl: ~100%
[2]
  percentage relaxation of the precontraction by KCl: ~100%
Plasmin; plasmin in Tris/HCl-NaCl buffer, read-out: HalfLife in plasmin
  half-life at 125 μM: 2.03 min
Plasmin
  K (one phase exponential decay, best fit values): 0.3413
  PLATEAU (one phase exponential decay, best fit values): 0.04207
  SPAN (one phase exponential decay, best fit values): 0.9579
[3]
  −Log10 EC50 (pEC50) ± Standard Error: 8.792 ± 0.2718
[3]; read-out: EC50 (M) ± Standard Error
  EC50: 1.64e-08 M
